The target of assay [1] is T1, human cathepsin F (Homo sapiens, UniProt Q9UBX1).
T1 sequence (Q9UBX1 271-484): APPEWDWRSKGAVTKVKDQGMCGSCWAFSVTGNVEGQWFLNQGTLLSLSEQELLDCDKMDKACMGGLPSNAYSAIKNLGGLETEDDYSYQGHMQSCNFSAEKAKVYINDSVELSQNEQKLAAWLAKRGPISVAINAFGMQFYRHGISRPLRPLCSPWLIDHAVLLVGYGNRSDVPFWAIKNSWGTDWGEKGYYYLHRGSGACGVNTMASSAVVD
Description: Cathepsin F assay (hCat F). It is filed as biochemical. As to conditions: human cathepsin F 10 nM, Z-Phe-Arg-AMC 8 μM, pH 5.5, 15 min preincubation; read-out: hCat F IP. In a few lines: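 Human cathepsin F (10 nM) in 50 mM MES pH 5.5, 2.5 mM EDTA, 2.5 mM DTT, 10% DMSO was preincubated 15 min at RT with compounds from a ⅓ DMSO dilution series (500–0.025 μM stocks). Z-Phe-Arg-AMC was added (8 μM as added), and AMC release was read by fluorescence (360/460 nm) for 20 min. Percent inhibition was fitted to a dose-response model.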

Assay [2] addresses human cathepsin K (UniProt P43236). Kind of assay: Cathepsin K Assay (hrbCat K). As to conditions: human cathepsin K 0.4 nM, Z-Leu-Arg-AMC 8 μM, pH 5.5, 15 min preincubation; read-out: hrbCat K IP. Type of assay: biochemical. The procedure, abridged: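 Human cathepsin K (0.4 nM) in pH 5.5 MES buffer with EDTA, DTT and 10% DMSO was preincubated 15 min at room temperature with compound from a ⅓ dilution series (500-0.025 μM DMSO stocks). Z-Leu-Arg-AMC (8 μM) was then added, and AMC release was followed fluorometrically (Ex 360/Em 460 nm) for 30 min; inhibition was fitted to a dose-response model.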

In the case of `N#CC1(NC(=O)[C@@H]2CCCC[C@H]2c2oc(-c3ccccc3C(F)(F)F)nc2-c2ccc(N3CCS(=O)(=O)CC3)cc2)CC1` [Example 69, (1R,2R)-N-(1-cyanocyclopropyl)-2-(4-(4-(1,1-dioxidothiomorpholino)phenyl)-2-(2-(trifluoromethyl)phenyl)oxazol-5-yl)cyclohexanecarboxamide], the IC50 stood at 0.827 µM in assay [1] and 0.00294 µM in assay [2].

With `N#CC1(NC(=O)[C@@H]2CCCC[C@H]2c2oc(-c3ncccc3F)nc2-c2ccc(N3CCS(=O)(=O)CC3)cc2)CC1` [Example 84, (1R,2R)-N-(1-cyanocyclopropyl)-2-(4-(4-(1,1-dioxidothiomorpholino)phenyl)-2-(3-fluoropyridin-2-yl)oxazol-5-yl)cyclohexanecarboxamide], the IC50 was found to be 4.23 µM in assay [1] and 0.00292 µM in assay [2].

As to `CS(=O)(=O)C1CN(c2ccc(-c3nc(-c4ccc(F)cc4F)oc3[C@@H]3CCCC[C@H]3C(=O)NC3(C#N)CC3)cc2)C1` [Example 39, (1R,2R)-N-(1-cyanocyclopropyl)-2-(2-(2,4-difluorophenyl)-4-(4-(3-(methylsulfonyl)azetidin-1-yl)phenyl)oxazol-5-yl) cyclohexanecarboxamide], the IC50 in assay [1] stood at 0.702 µM; in assay [2], 0.00211 µM.

With `N#CC1(NC(=O)[C@@H]2CCCC[C@H]2c2oc(-c3cncc(N4CCS(=O)(=O)CC4)c3)nc2-c2ccc(N3CCS(=O)(=O)CC3)cc2)CC1` [Example 92, (1R,2R)-N-(1-cyanocyclopropyl)-2-(4-(4-(1,1-dioxidothiomorpholino)phenyl)-2-(5-(1,1-dioxidothiomorpholino)pyridin-3-yl)oxazol-5-yl)cyclohexanecarboxamide], the IC50 in assay [1] is 0.803 µM; in assay [2] it was 0.00092 µM.

Turning to `C[C@@H]1CC(F)(F)CC[C@@H]1c1nc(-c2ccc(N3CCS(=O)(=O)CC3)cc2)c([C@@H]2CCCC[C@H]2C(=O)NC2(C#N)CC2)o1` [Example 107, (1R,2R)-N-(1-cyanocyclopropyl)-2-(2-((1S,2R)-4,4-difluoro-2-methylcyclohexyl)-4-(4-(1,1-dioxidothiomorpholino)phenyl)oxazol-5-yl)cyclohexanecarboxamide], the results for the IC50 in assay [1] and in assay [2] were 1.29 µM and 0.00231 µM, respectively.

As for `N#CC1(NC(=O)[C@@H]2CCCC[C@H]2c2oc(-c3ccc(OC(F)F)cc3)nc2-c2ccc(N3CCS(=O)(=O)CC3)cc2)CC1` [Example 64, (1R,2R)-N-(1-cyanocyclopropyl)-2-(2-(4-(difluoromethoxy)phenyl)-4-(4-(1,1-dioxidothiomorpholino)phenyl)oxazol-5-yl)cyclohexanecarboxamide], the IC50 worked out at 0.573 µM in assay [1] and 0.00104 µM in assay [2].

With `N#CC1(NC(=O)[C@@H]2CCCC[C@H]2c2oc(C(F)(F)C(F)(F)F)nc2-c2ccc(N3CCS(=O)(=O)CC3)cc2)CC1` [Example 3, (1R,2R)—N-(1-Cyanocyclopropyl)-2-(4-(4-(1,1-dioxidothiomorpholino)phenyl)-2-(perfluoroethyl)oxazol-5-yl)cyclohexanecarboxamide], the values for the IC50 in assay [1] and in assay [2] were 0.666 µM and 0.00102 µM, respectively.

Consider `CC1CC1(C#N)NC(=O)[C@@H]1CCCC[C@H]1c1oc(-c2ccc(F)cc2)nc1-c1ccc(N2CCS(=O)(=O)CC2)cc1` (single isomer, unassigned) [Example 133, (1R,2R)-N-((2R or 2S)-1-cyano-2-methylcyclopropyl)-2-(4-(4-(1,1-dioxidothiomorpholino)phenyl)-2-(4-fluorophenyl)oxazol-5-yl)cyclohexanecarboxamide], for which the figures for the IC50 in assay [1] and in assay [2] were 3.14 µM and 0.00253 µM, respectively.

Regarding `N#CC1(NC(=O)[C@@H]2CCCC[C@H]2c2oc(-c3cccc(OC(F)(F)F)c3)nc2-c2ccc(N3CCS(=O)(=O)CC3)cc2)CC1` [Example 86, (1R,2R)-N-(1-cyanocyclopropyl)-2-(4-(4-(1,1-dioxidothiomorpholino)phenyl)-2-(3-(trifluoromethoxy)phenyl)oxazol-5-yl)cyclohexanecarboxamide], the IC50 in assay [1] is 1.83 µM; in assay [2] it was 0.00262 µM.

On to `N#C[C@H](NC(=O)[C@@H]1CCCC[C@H]1c1oc(-c2ccc(F)cc2)nc1-c1ccc(N2CCS(=O)(=O)CC2)cc1)C1CCOCC1` [Example 127, (1R,2R)-N-((R)-cyano(tetrahydro-2H-pyran-4-yl)methyl)-2-(4-(4-(1,1-dioxidothiomorpholino)phenyl)-2-(4-fluorophenyl)oxazol-5-yl)cyclohexanecarboxamide], for which the results for the IC50 in assay [1] and in assay [2] were no less than 10 µM and 0.0485 µM, respectively.

As to `N#CC1(NC(=O)[C@@H]2CCCC[C@H]2c2oc(-c3ncccc3C(F)(F)F)nc2-c2ccc(N3CCS(=O)(=O)CC3)cc2)CC1` [Example 80, (1R,2R)-N-(1-cyanocyclopropyl)-2-(4-(4-(1,1-dioxidothiomorpholino)phenyl)-2-(3-(trifluoromethyl)pyridin-2-yl)oxazol-5-yl)cyclohexanecarboxamide], the IC50 came to 1.49 µM in assay [1] and 0.00243 µM in assay [2].

For the molecule `N#CC(CC(F)(F)F)NC(=O)[C@@H]1CCCC[C@H]1c1oc(-c2ccc(F)cc2)nc1-c1ccc(N2CCS(=O)(=O)CC2)cc1` (single isomer, unassigned) [Example 131, (1R,2R)-N-((R or S)-1-cyano-3,3,3-trifluoropropyl)-2-(4-(4-(1,1-dioxidothiomorpholino)phenyl)-2-(4-fluorophenyl)oxazol-5-yl)cyclohexanecarboxamide], the IC50 in assay [1] is 0.014 µM; in assay [2], 0.00065 µM.

`N#CC1(NC(=O)[C@@H]2CCCC[C@H]2c2oc(CC(F)(F)F)nc2-c2ccc(N3CCS(=O)(=O)CC3)cc2)CC1` [Example 15, (1R,2R)-N-(1-cyanocyclopropyl)-2-(4-(4-(1,1-dioxidothiomorpholino)phenyl)-2-(2,2,2-trifluoroethyl)oxazol-5-yl)cyclohexanecarboxamide]: the IC50 in assay [1] is 0.64 µM; in assay [2], 0.0018 µM.

As to `N#CC1(NC(=O)[C@@H]2CC(F)(F)CC[C@H]2c2oc(C(F)(F)C(F)(F)F)nc2-c2ccc(C(=O)N3CCOCC3)cc2)CC1` [Example 119, (1R,2R)-N-(1-cyanocyclopropyl)-5,5-difluoro-2-(4-(4-(morpholine-4-carbonyl)phenyl)-2-(perfluoroethyl)oxazol-5-yl)cyclohexanecarboxamide], the IC50 in assay [1] worked out at 0.306 µM; in assay [2] it was 0.00104 µM.

On to `CC(C)(C)c1nc(-c2ccc(N3CCS(=O)(=O)CC3)cc2)c([C@@H]2CCCC[C@H]2C(=O)NC2(C#N)CC2)s1` [Example 10, (1R,2R)-2-(2-(tert-butyl)-4-(4-(1,1-dioxidothiomorpholino)phenyl)thiazol-5-yl)-N-(1-cyanocyclopropyl)cyclohexanecarboxamide], for which the IC50 in assay [1] was 1.44 µM; in assay [2], 0.00165 µM.

Regarding `N#CC1(NC(=O)[C@@H]2CCCC[C@H]2c2oc(-c3ccc(C(F)(F)F)cn3)nc2-c2ccc(N3CCS(=O)(=O)CC3)cc2)CC1` [Example 81, (1R,2R)-N-(1-cyanocyclopropyl)-2-(4-(4-(1,1-dioxidothiomorpholino)phenyl)-2-(5-(trifluoromethyl)pyridin-2-yl)oxazol-5-yl)cyclohexanecarboxamide], the IC50 in assay [1] was 3.06 µM; in assay [2], 0.00299 µM.

In the case of `CC1(C)C(c2nc(-c3ccc(N4CCS(=O)(=O)CC4)cc3)c([C@@H]3CCCC[C@H]3C(=O)NC3(C#N)CC3)o2)C1(C)C` [Example 113, (1R,2R)-N-(1-cyanocyclopropyl)-2-(4-(4-(1,1-dioxidothiomorpholino)phenyl)-2-(2,2,3,3-tetramethylcyclopropyl)oxazol-5-yl)cyclohexanecarboxamide], the IC50 came out at 2.45 µM in assay [1] and 0.00421 µM in assay [2].

In the case of `CC(C)(C)c1nc(-c2ccc(N3CCS(=O)(=O)CC3)cc2)c([C@@H]2CC[C@H](F)C[C@H]2C(=O)NC2(C#N)CC2)o1` [Example 147, (1R,2R,5S)-2-(2-(tert-butyl)-4-(4-(1,1-dioxidothiomorpholino)phenyl)oxazol-5-yl)-N-(1-cyanocyclopropyl)-5-fluorocyclohexane-carboxamide], the IC50 came out at 2.41 µM in assay [1] and 0.0015 µM in assay [2].

Consider `N#CC(CC(F)(F)F)NC(=O)[C@@H]1CC(F)(F)CC[C@H]1c1oc(C(F)(F)C(F)(F)F)nc1-c1ccc(C(=O)N2CCOCC2)cc1` (single isomer, unassigned) [Example 142, (1R,2R)-N-((R or S)-1-cyano-3,3,3-trifluoropropyl)-5,5 - difluoro-2-(4-(4-(morpholine-4-carbonyl)phenyl)-2-(perfluoroethyl)oxazol-5-yl)cyclohexanecarboxamide], for which the IC50 in assay [1] was 0.446 µM; in assay [2] it was 0.00106 µM.

Consider `N#CC1(NC(=O)[C@@H]2CCCC[C@H]2c2oc(-c3cccc(Cl)c3F)nc2-c2ccc(N3CCS(=O)(=O)CC3)cc2)CC1` [Example 6, (1R,2R)-2-(2-(3-chloro-2-fluorophenyl)-4-(4-(1,1-dioxidothiomorpholino)phenyl)oxazol-5-yl)-N-(1-cyanocyclopropyl)cyclohexanecarboxamide], for which the IC50 in assay [1] came out at 0.631 µM; in assay [2], 0.00048 µM.
